From US5049637A, “1,2,3,4,10,14b-hexahydrodibenzo[c,f]pyrazino-[1,2-a]azepino derivatives and 10-aza, 10-oxa and 10-thia analogues” (Monash University, priority 1987, dated 1991)

Columns and labels:
[1] = test system: isolated guinea pig ileum (KCl-induced contractions); experiment: Block of KCl-induced contraction of the isolated guinea-pig ileum; details: block of contractions of isolated guinea pig ileum induced by KCl
Procedure: (§1) Compounds according to formula I were tested for their ability to block contractions of the isolated guinea pig ileum induced by KCl, carbachol, or histamine at a concentration of 10^-7 M. Ileum preparations were prepared according to standard methodology. The concentrations shown are the minimum required to show activity.

[2] = test system: isolated guinea pig ileum (carbachol-induced contractions); experiment: Block of carbachol-induced contraction of the isolated guinea-pig ileum; details: block of contractions of isolated guinea pig ileum induced by carbachol
Procedure: as §1

[3] = test system: isolated guinea pig ileum (histamine-induced contractions); experiment: Block of histamine-induced contraction of the isolated guinea-pig ileum
Procedure: (§2) The compound of Example 2 was found in low concentrations to inhibit contractions of the guinea-pig isolated ileum and rat isolated stomach strip caused by histamine and 5-hydroxytryptamine respectively. […] Concomitantly, the depressor effects of histamine were blocked, as were the pressor effects of 5-hydroxytryptamine for over 30 minutes. The pressor effects of 5-hydroxytryptamine in anaesthetised and pithed rats were inhibited by intravenous doses of 0.3-1.0 mg/kg body weight. Slightly higher doses reduced the bradycardia and the depressor response (the Bezold-Jarisch reflex mediated by 5-HT3 receptors) to 5-hydroxytryptamine in anaesthetised rats. The drug inhibited oedema in the rat paw caused by intraplantar 5-hydroxytryptamine. […] In mice it inhibited diarrhoea caused by L-5-hydroxytryptophan. In guinea pigs, intravenous doses of 0.03 mg/kg and above reduced the bronchoconstrictor effects of histamine and 5-hydroxytryptamine.
as §1

[4] = test system: pressor effects of 5-hydroxytryptamine; experiment: Pressor effects of 5-hydroxytryptamine in rats; type: in vivo, rat; details: rat, intravenous; read-out: Intravenous dose depressing/reducing the pressor responses to 5-hydroxytryptamine
Procedure: as §2
(§3) In cats, the effects of the ganglion stimulant McNeil -A-343 and histamine were reduced. Following intravenous injection into guinea-pigs, […] reduced histamine and 5-hydroxytryptamine induced broncho-constriction. Concentrations of 1 μg/ml or greater relaxed the isolated rat uterus in vitro.
(§4) The compound of Example 4 when injected into rats at intravenous doses of 0.3 mg/kg or greater reduced the pressor effects of 5-hydroxytryptamine and also the depressor effects of histamine. In cats, the effect of histamine was reduced after these doses also.

[5] = test system: depressor effects of histamine; experiment: Depressor effects of histamine in rats; type: in vivo, rat; details: Rattus norvegicus, intravenous, read-out: Intravenous dose reducing the depressor effects of histamine
Procedure: as §2, §4

[6] = test system: depressor effects of histamine; experiment: Effects of histamine in cats; type: in vivo, cat; details: intravenous
Procedure: as §2, §3, §4

[7] = test system: bronchoconstrictor effects of histamine and 5-hydroxytryptamine; experiment: Histamine and 5-hydroxytryptamine induced bronchoconstriction in guinea pigs; type: in vivo, guinea pig; details: Cavia porcellus, intravenous, read-out: Intravenous dose reducing histamine and 5-hydroxytryptamine bronchoconstriction
Procedure: as §2, §3, §4
Thus doses of 1 mg/kg given intraperitoneally attenuated the facilitation of spinal reflex activity caused by p-chloroamphetamine, and also the facilitation of spinal reflexes induced by fenfluramine in spinal and decerebrate rats. […] The drug in doses of 10 and 20 mg/kg intraperitoneally and in doses of 20 mg/kg by mouth attenuated morphine-induced catalepsy. We conclude therefore that this drug is an orally active drug with central actions, particularly affecting serotonergic mechanisms, but has no effect in vitro (Table 1). […] Thus it was found after intravenous doses of 0.03 mg/kg to reduce histamine and 5-hydroxytryptamine bronchoconstriction in the guinea pig.

isolated rat uterus = experiment: Isolated rat uterus in vitro
[8] = test system: arterial blood pressure and heart rate; experiment: Arterial blood pressure and heart rate in guinea pigs after intravenous doses; type: in vivo, guinea pig; details: intravenous 0.01 mg/kg or greater

## NC(=S)N1CCN2c3ccccc3Cc3ccccc3C2C1 (centres unmarked) [Example 4, 2-Thiocarboxamido-1,2,3,4,10,14b-hexahydrodibenzo [c,f]pyrazino[1,2-a]azepine]
[1]
  Effect on KCl: - (no effect)
[2]
  Effect on Carbachol: - (no effect)
[3]; Cavia porcellus, isolated guinea pig ileum, histamine 10^-7 M, read-out: Effect on Histamine: minimum concentration required to show activity
  minimal effective concentration: 0.01 to 0.1 µM
[3]; block of contractions of isolated guinea pig ileum induced by histamine at 10^-7 M
  Effect on Histamine: ++
[4]
  minimal effective dose: ≥ 0.3 mg/kg
[5]
  minimal effective dose: ≥ 0.3 mg/kg
[6]
  Effects of histamine (depressor) in cats: reduced
[7]
  minimal effective dose: ≥ 0.01 mg/kg
Isolated rat uterus
  Concentration reducing contractions of the isolated rat uterus caused by 5-hydroxytryptamine or high potassium concentrations: ≥ 0.1 µg/mL
Isolated rat uterus; 0.1 μg/ml or greater
  Anti-spasmodic action: anti-spasmodic action
[8]
  Effects on arterial blood pressure and heart rate compared with the compound of Example 2: smaller effects
